These results are taken from patent publication US20220249597A1, “MIF INHIBITORS AND METHODS OF USE THEREOF” (The Johns Hopkins University, priority 2016, published 2022).

Data set [1] addresses T1, MIF (Homo sapiens, UniProt P14174).
T1 sequence (P14174 2-115 limits assumed): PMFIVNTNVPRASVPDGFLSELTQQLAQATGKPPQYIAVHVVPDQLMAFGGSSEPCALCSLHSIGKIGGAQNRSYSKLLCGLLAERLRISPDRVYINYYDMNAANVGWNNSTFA
In words: MIF nuclease assay with small DNA substrates. The conditions noted are these: for Endo-Nuclease Activity / Exo-Nuclease Activity: MIF on the listed DNA substrate; for MIF cleavage of DNA substrate: single or double stranded substrates, ds substrates MIF 1-4 μM. The format is biochemical. Also noted: GST (N, cleaved yes); made in house; host or cells: Escherichia coli; key to Endo-Nuclease Activity / Exo-Nuclease Activity: Y:yes; N:no. From the text: (§1) Human endoG (NM_004435), cyclophilin A (NM_021130), mouse AIF (NM_012019), human MIF (NM_002415) cDNA and their variants were subcloned into glutathione S-transferase (GST)-tagged pGex-6P-1 vector (GE Healthcare) by EcoRI and XhoI restriction sites and verified by sequencing. The protein was expressed and purified from Escherichia coli by glutathione Sepharose. The GST tag was subsequently proteolytically removed for the nuclease assay. MIF point mutants were constructed by polymerase chain reaction (PCR) and verified by sequencing. The purity of MIF proteins that were used in the nuclease assays was further confirmed by mass spectrometry. MIF proteins purified by FPLC were also used in the nuclease assays and no obvious difference was observed between FPLC MIF and non-FPLC MIF proteins. GST protein was used as a negative control in the nuclease assay.

Data set [2] has as its target T1, MIF. Nature of the data set: Electrophoretic mobility shift assay (EMSA) of MIF with biotin-labeled DNA substrates. Details: GST (N, cleaved yes); made in house; host or cells: Escherichia coli. The format is binding. Particulars: 5′ biotin labeled single stranded substrates, 10 mM Mg2+. The protocol: EMSA assay was performed using LightShift Chemiluminescent EMSA kit (Thermo Scientific) following the manufactures instruction. Briefly, purified MIF protein (2 μM) was incubated with biotin-labeled DNA substrates (10 nM) in the binding buffer containing 10 mM MgCl2 for 30 min on ice. Then samples were separated on 6% retardation polyacrylamide followed by electrophoretic transfer to nylon membrane.
as §1

In data set [3] the target is T1, MIF. The conditions noted are these: Mg2+ 10 mM with EDTA 50 mM or Ca2+ 2 mM with EDTA 25 mM.
Procedure: (A) In vitro MIF nuclease assay using pcDNA as substrate. […] (C) Pulse-field gel electrophoresis assay of MNNG-induced DNA damage in MIF deficient HeLa cells and wild type HeLa cells treated with or without DPQ (30 μM) or ISO-1 (100 μM).
The reaction was terminated with loading buffer containing 10 mM EDTA and incubation on ice. […] Small DNA substrates were separated on 15% or 25% TBE-urea polyacrylamide (PAGE) gel or 20% TBE PAGE gel. Then gel was stained with 0.5 μg/ml Ethidium Bromide (EtBr) followed by electrophoretic transfer to nylon membrane. Then, Biotin-labeled DNA is further detected by chemiluminescence using Chemiluminescent Nucleic Acid Detection Module (Thermo Scientific).
Another data set deals with HeLa cells. Nature of the data set: Pulse-field gel electrophoresis assay of MNNG-induced DNA damage in HeLa cells. The format is cell-based, human. The conditions noted are these: DPQ 30 μM; ISO-1 100 μM. From the text:
FIGS. 2A-2D. FIG. 2. MIF is a novel nuclease that cleaves genomic DNA.

{Biotin} = biotin label

Consider “3F1: 5′ biotin ssDNA MIF substrate, SEQ ID NO: 12 (DNA AAAAAAAAAACAAGTAGCTGGGATTACAGG; DNA, 5' {Biotin}, backbone and methylation of C not given here)”, for which, in the data set with MIF [1], the “Endo-Nuclease Activity” value was “Y” and the “Exo-Nuclease Activity” value is listed as “Y”. The “MIF binding to ssDNA substrate (DNA/MIF complex formation)” value with MIF [2] is “clearly binds”.

Consider `O=C(O)CN(CCN(CC(=O)O)CC(=O)O)CC(=O)O` [EDTA], for which the “Effect on MIF nuclease activity against human genomic DNA” value on MIF [3] is on record as “blocks MIF's nuclease activity”.

With `COC(=O)CC1CC(c2ccc(O)cc2)=NO1` (stereo not drawn) [ISO-1], in the data set on HeLa cells, the “Effect on MNNG induced DNA damage / DNA cleavage” value was “fails to prevent MNNG induced DNA damage”.

As for “BS2: 5′ biotin ssDNA MIF substrate, SEQ ID NO: 96 (DNA TGGGATTACAGGCGTGAGCCACCACGCCC; DNA, 5' {Biotin}, backbone and methylation of C not given here)”, in the data set with MIF [1], the “Endo-Nuclease Activity” value is “Y” and the “Exo-Nuclease Activity” value is on record as “Y”.

Regarding “L3: 5′ biotin non-related sequence with stem loop like structure, SEQ ID NO: 13 (DNA ACCTAAATGCTAGAGCTCGCTGATCAGCCT; DNA, 5' {Biotin}, backbone and methylation of C not given here)”, in the data set with MIF [1], the “Endo-Nuclease Activity” value is given as “Y”; the “Exo-Nuclease Activity” value is “Y”; the “MIF cleavage of DNA substrate” value is recorded as “cleaved by MIF, but with less efficiency”. Further, in the data set with MIF [2], the “MIF binding to ssDNA substrate (DNA/MIF complex formation)” value is “weakly binds”.

“LF: 5′ biotin ssDNA MIF substrate, SEQ ID NO: 7 (DNA AAAAAAACTCAGCCTCCCAAGTAGCTGGGA; DNA, 5' {Biotin}, backbone and methylation of C not given here)”: in the data set with MIF [1], the “Endo-Nuclease Activity” value is “N” and the “Exo-Nuclease Activity” value was “N”. The “MIF binding to ssDNA substrate (DNA/MIF complex formation)” value with MIF [2] is given as “no obvious effect on the DNA/MIF complex formation”.

Turning to PA^30: 5′ biotin-poly A, SEQ ID NO: 9, in the data set with MIF [1], the “Endo-Nuclease Activity” value is “N”, the “Exo-Nuclease Activity” value was “Y” and the “MIF cleavage of DNA substrate” value is recorded as “cleave”. For the same compound, the “MIF binding to ssDNA substrate (DNA/MIF complex formation)” value in the data set with MIF [2] is listed as “fails to bind”.

For “RF: 5′ biotin ssDNA MIF substrate, SEQ ID NO: 8 (DNA TCCCAAGTAGCTGGGATTACAGGAAAAAAA; DNA, 5' {Biotin}, backbone and methylation of C not given here)”, in the data set with MIF [1], the “Endo-Nuclease Activity” value is listed as “Y” and the “Exo-Nuclease Activity” value is listed as “Y”. In addition, the “MIF binding to ssDNA substrate (DNA/MIF complex formation)” value in the data set with MIF [2] is given as “reduces the DNA-MIF binding”.

Regarding “SL: 5′ biotin ssDNA MIF substrate, SEQ ID NO: 6 (DNA CCTGTAATCCCAAGTAGCTGGGATTACAGG; DNA, 5' {Biotin}, backbone and methylation of C not given here)”, in the data set with MIF [1], the “Endo-Nuclease Activity” value is “N” and the “Exo-Nuclease Activity” value is reported as “N”.

Take “m2: 5′ biotin ssDNA MIF substrate, SEQ ID NO: 79 (DNA CTCAGCCTCCAAAAAAAAAAGGATTACAGG; DNA, 5' {Biotin}, backbone and methylation of C not given here)”: in the data set with MIF [1], the “Endo-Nuclease Activity” value is reported as “Y” and the “Exo-Nuclease Activity” value is on record as “Y”.

Turning to “m3: 5′ biotin ssDNA MIF substrate, SEQ ID NO: 80 (DNA CTCAGCCTCCCAAGTAGCTGAAAAAAAAAA; DNA, 5' {Biotin}, backbone and methylation of C not given here)”, in the data set with MIF [1], the “Endo-Nuclease Activity” value was “Y” and the “Exo-Nuclease Activity” value is recorded as “Y”.

On to “m4: 5′ biotin ssDNA MIF substrate, SEQ ID NO: 81 (DNA CTCAGCCAAAAAAATAGCTGGGATTACAGG; DNA, 5' {Biotin}, backbone and methylation of C not given here)”, for which, in the data set with MIF [1], the “Endo-Nuclease Activity” value is recorded as “Y” and the “Exo-Nuclease Activity” value is listed as “Y”.

For the compound “m5: 5′ biotin ssDNA MIF substrate, SEQ ID NO: 82 (DNA CTCAGCCTCCCAAAAAAAAGGGATTACAGG; DNA, 5' {Biotin}, backbone and methylation of C not given here)”, in the data set with MIF [1], the “Endo-Nuclease Activity” value is given as “Y” and the “Exo-Nuclease Activity” value is on record as “Y”.

With “m6: 5′ biotin ssDNA MIF substrate, SEQ ID NO: 83 (DNA CTCAAAAAAACAAGTAGCTGGGATTACAGG; DNA, 5' {Biotin}, backbone and methylation of C not given here)”, in the data set with MIF [1], the “Endo-Nuclease Activity” value is “Y” and the “Exo-Nuclease Activity” value is given as “Y”.

As to “m7: 5′ biotin ssDNA MIF substrate, SEQ ID NO: 84 (DNA AAAAGCCTCCCAAGTAGCTGGGATTACAGG; DNA, 5' {Biotin}, backbone and methylation of C not given here)”, in the data set with MIF [1], the “Endo-Nuclease Activity” value is “Y” and the “Exo-Nuclease Activity” value is “Y”.

Turning to “m8: 5′ biotin ssDNA MIF substrate, SEQ ID NO: 85 (DNA CTCAAAATCCCAAAAAAAAGGGATTACAGG; DNA, 5' {Biotin}, backbone and methylation of C not given here)”, in the data set with MIF [1], the “Endo-Nuclease Activity” value is given as “Y” and the “Exo-Nuclease Activity” value is on record as “Y”.

Take “m9: 5′ biotin ssDNA MIF substrate, SEQ ID NO: 86 (DNA CAAGTAGCTGCTCAGCCTCCGGATTACAGG; DNA, 5' {Biotin}, backbone and methylation of C not given here)”: in the data set with MIF [1], the “Endo-Nuclease Activity” value is listed as “Y” and the “Exo-Nuclease Activity” value was “Y”.

Consider “m10: 5′ biotin ssDNA MIF substrate, SEQ ID NO: 87 (DNA CTCAGCCTCCGGATTACAGGCAAGTAGCTG; DNA, 5' {Biotin}, backbone and methylation of C not given here)”, for which, in the data set with MIF [1], the “Endo-Nuclease Activity” value is reported as “Y” and the “Exo-Nuclease Activity” value was “Y”.

On to “m11: 5′ biotin ssDNA MIF substrate, SEQ ID NO: 88 (DNA CTCAGCCTCCCAAGTAAAAGGGATTACAGG; DNA, 5' {Biotin}, backbone and methylation of C not given here)”, for which, in the data set with MIF [1], the “Endo-Nuclease Activity” value is “Y” and the “Exo-Nuclease Activity” value is “Y”.

Consider “m12: 5′ biotin ssDNA MIF substrate, SEQ ID NO: 89 (DNA CTCAGCCTCCCAAGTAAATGGGATTACAGG; DNA, 5' {Biotin}, backbone and methylation of C not given here)”, for which, in the data set with MIF [1], the “Endo-Nuclease Activity” value is given as “Y” and the “Exo-Nuclease Activity” value is on record as “Y”.

As for “m14: 5′ biotin ssDNA MIF substrate, SEQ ID NO: 90 (DNA CTCAGCCTCCCAAGTAAACGGGATTACAGG; DNA, 5' {Biotin}, backbone and methylation of C not given here)”, in the data set with MIF [1], the “Endo-Nuclease Activity” value was “Y” and the “Exo-Nuclease Activity” value is reported as “Y”.

As for “m15: 5′ biotin ssDNA MIF substrate, SEQ ID NO: 91 (DNA CTCAGCCTCCCAAGTAGCAGGGATTACAGG; DNA, 5' {Biotin}, backbone and methylation of C not given here)”, in the data set with MIF [1], the “Endo-Nuclease Activity” value was “Y” and the “Exo-Nuclease Activity” value is listed as “Y”.

With “m16: 5′ biotin ssDNA MIF substrate, SEQ ID NO: 92 (DNA CTCAGCCTCCCTTGTAGCTGGGATTACAGG; DNA, 5' {Biotin}, backbone and methylation of C not given here)”, in the data set with MIF [1], the “Endo-Nuclease Activity” value is “Y” and the “Exo-Nuclease Activity” value is on record as “Y”.

As for “m17: 5′ biotin ssDNA MIF substrate, SEQ ID NO: 93 (DNA CTCAAAATCCCAAGTAGCTGGGATTACAGG; DNA, 5' {Biotin}, backbone and methylation of C not given here)”, in the data set with MIF [1], the “Endo-Nuclease Activity” value is recorded as “Y” and the “Exo-Nuclease Activity” value was “Y”.

Take “m18: 5′ biotin ssDNA MIF substrate, SEQ ID NO: 94 (DNA CTCAATTTCCCAAGTAGCTGGGATTACAGG; DNA, 5' {Biotin}, backbone and methylation of C not given here)”: in the data set with MIF [1], the “Endo-Nuclease Activity” value is given as “Y” and the “Exo-Nuclease Activity” value is listed as “Y”.

As for “m20: 5′ biotin ssDNA MIF substrate, SEQ ID NO: 95 (DNA AAAAATCTCAGCCTCCCAAGTAGCTGGGAT; DNA, 5' {Biotin}, backbone and methylation of C not given here)”, in the data set with MIF [1], the “Endo-Nuclease Activity” value was “Y” and the “Exo-Nuclease Activity” value was “Y”.
